Assay results published in US20230416293A1, “SYNTHESIS OF [18F]-LABELED THYMIDINE ANALOGUES” (UNIVERSITY OF SOUTHERN CALIFORNIA, priority 2020, published 2023).
One block for each molecule: values may come before it.

Tests used:
[1] = 1-octanol/PBS partition coefficient (Log P); type: physicochemical; details: for Partition coefficients of 1-octanol/PBS: room temperature, PBS pH 7.4, quintuplicate
MDA-MB-231 tumor = assay: microPET imaging of subcutaneous MDA-MB-231 tumor-bearing nude mice; type: in vivo; details: MDA-MB-231 tumor model; for tumor uptake: intravenous, n=3
Method: (§1) After the intravenous injection of [^18F]FMAU at 1 h and 2 h, the mice (n=3/group) were scanned through a microPET imaging system. […] For microPET scans, radioactivity accumulations in tumors and major tissues/organs were quantified by calculating the ROIs that comprised the entire organ on the coronal images.
(§2) Tumor cells were cultured in Dulbecco's Modified Eagle Medium (DMEM) supplemented with 10% fetal bovine serum at 37° C. in a humidified incubator containing 5% CO2.
(§3) Both MDA-MB-231 and U-87 MG tumor xenograft models (n=3/group) were generated by subcutaneous injection of 5×10^6 tumor cells into the front right flank of female athymic nude mice (4-6 weeks old) purchased from Envigo Inc., Indianapolis, IN. The tumors were permitted to grow 2-4 weeks until approximate 0.6-0.8 cm^3 in volume.
(§4) MicroPET scans were carried out using a rodent scanner (Siemens Inveon microPET scanner, Siemens Medical Solutions). About 7.4 MBq (200 μCi) of [^18F]FMAU was injected through the tail vein under isoflurane anesthesia condition. Five-minute static scans were obtained at 60- and 120-min post-injection (p.i.). The 3D-OSEM algorithm was applied for image reconstruction. For each microPET scan, the regions of interest (ROIs) were drawn over tumor, muscle, liver, and kidneys on the decay-corrected whole-body coronal images. The tumor-to-muscle (T/M), tumor-to-liver (T/L), and tumor-to-kidney (T/K) ratios were then calculated.

U-87 MG tumor = assay: microPET imaging of subcutaneous U-87 MG tumor-bearing nude mice; type: in vivo; details: U-87 MG tumor model; for tumor uptake: intravenous, n=3
Method: as §1, §2, §3, §4

[2] = 1-octanol/PBS pH 7.4, room temperature, quintuplicate

SMILES: O=c1ccn([C@@H]2O[C@H](CO)[C@@H](O)[C@@H]2[18F])c(=O)[nH]1 [[^18F]FAU, 2′-Deoxy-2′-[^18F]fluoro-1-β-D-arabinofuranosyluracil]
Log P [1, 2]: −0.943±0.041 | Partition coefficients of 1-octanol/PBS [1]: 0.114 ± 0.011

SMILES: O=c1[nH]c(=O)n([C@@H]2O[C@H](CO)[C@@H](O)[C@@H]2F)cc1Br [[^18F]FBAU, 1-(2-deoxy-2-fluoro-β-D-arabinofuranosyl)-5-bromouracil]
logP [1, 2]: -0.367 ± 0.025

SMILES: O=c1[nH]c(=O)n([C@@H]2O[C@H](CO)[C@@H](O)[C@@H]2[18F])cc1Cl [[^18F]FCAU, 2′-deoxy-2′-[^18F]fluoro-5-chloro-1-β-D-arabinofuranosyluracil]
Log P [1, 2]: −0.477±0.030 | Partition coefficients of 1-octanol/PBS [1]: 0.334 ± 0.022

SMILES: O=c1[nH]c(=O)n([C@@H]2O[C@H](CO)[C@@H](O)[C@@H]2[18F])cc1F [[^18F]FFAU, 2′-deoxy-2′-[^18F]fluoro-5-fluoro-1-β-D-arabinofuranosyluracil]
Log P [1, 2]: −0.952±0.023 | Partition coefficients of 1-octanol/PBS [1]: 0.113 ± 0.006

Other lines, results leading:

Log P [1, 2]: −0.077±0.018 | Partition coefficients of 1-octanol/PBS [1]: 0.837 ± 0.035
SMILES: CCc1cn([C@@H]2O[C@H](CO)[C@@H](O)[C@@H]2[18F])c(=O)[nH]c1=O [[^18F]FEAU, 2′-deoxy-2′-[^18F]fluoro-5-ethyl-1-β-D-arabinofuranosyluracil]

Log P [1, 2]: −0.108±0.013 | Partition coefficients of 1-octanol/PBS [1]: 0.780 ± 0.024
SMILES: O=c1[nH]c(=O)n([C@@H]2O[C@H](CO)[C@@H](O)[C@@H]2[18F])cc1I [[^18F]FIAU, 2′-deoxy-2′-[^18F]fluoro-5-iodo-1-β-D-arabinofuranosyluracil]

Log P [1, 2]: −0.577±0.003 | Partition coefficients of 1-octanol/PBS [1]: 0.265 ± 0.002 | ratio of tumor uptake to kidney uptake (T/K) (MDA-MB-231 tumor; 1 h p.i.): 1.9±0.5 | ratio of tumor uptake to liver uptake (T/L) (MDA-MB-231 tumor; 1 h p.i.): 2.1±0.2 | ratio of tumor uptake to muscle uptake (T/M) (MDA-MB-231 tumor; 1 h p.i.): 2.8±0.3 | tumor uptake (MDA-MB-231 tumor; 1 h p.i.): 6.4±0.4 % ID/g | ratio of tumor uptake to kidney uptake (T/K) (MDA-MB-231 tumor; 2 h p.i.): 1.9±0.5 | ratio of tumor uptake to liver uptake (T/L) (MDA-MB-231 tumor; 2 h p.i.): 2.5±0.2 | ratio of tumor uptake to muscle uptake (T/M) (MDA-MB-231 tumor; 2 h p.i.): 3.2±0.7 | tumor uptake (MDA-MB-231 tumor; 2 h p.i.): 7.2±0.6 % ID/g | ratio of tumor uptake to kidney uptake (T/K) (U-87 MG tumor; 1 h p.i.): 1.4±0.2 | ratio of tumor uptake to liver uptake (T/L) (U-87 MG tumor; 1 h p.i.): 1.4±0.3 | ratio of tumor uptake to muscle uptake (T/M) (U-87 MG tumor; 1 h p.i.): 1.8±0.2 | tumor uptake (U-87 MG tumor; 1 h p.i.): 6.0±0.2 % ID/g | ratio of tumor uptake to kidney uptake (T/K) (U-87 MG tumor; 2 h p.i.): 1.3±0.1 | ratio of tumor uptake to liver uptake (T/L) (U-87 MG tumor; 2 h p.i.): 1.5±0.3 | ratio of tumor uptake to muscle uptake (T/M) (U-87 MG tumor; 2 h p.i.): 1.9±0.3 | tumor uptake (U-87 MG tumor; 2 h p.i.): 5.6±0.4 % ID/g
SMILES: Cc1cn([C@@H]2O[C@H](CO)[C@@H](O)[C@@H]2[18F])c(=O)[nH]c1=O [[^18F]FMAU, 2′-Deoxy-2′-[^18F]fluoro-5-methyl-1-β-D-arabinofuranosyluracil]
